The results in this text go back to PubChem BioAssay AID248 (DTP/NCI, 2004).

Several values for one entry are separate records, joined by “and”; a condition that tells them apart may be missing. Equal entries are not always repeated. Toxic doses and inconclusive results are not listed.

The subject of the assay is L1210 leukemia ip in BDF1 mice, survival T/C. The assay can be described thus: NCI In Vivo Anticancer Drug Screen. Data for tumor model L1210 Leukemia (intraperitoneal) in B6D2F1 (BDF1) mice. As to conditions: endpoint: mean survival time, higher = longer survival. A digest of the protocol:
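Value reflects the ratio of survival in compound-treated mice to survival in vehicle-treated controls, with both groups carrying the same transplanted tumor.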

The mark [1] stands for this setting: dose: 100.0 mg/kg/injection, schedule: Q04DX002 (ip), vehicle: Klucel (hydroxypropylcellulose) (HPC).
Setting [2] is: dose: 200.0 mg/kg/injection, schedule: Q04DX002 (ip), vehicle: Klucel (hydroxypropylcellulose) (HPC).
Setting [3] is: dose: 100.0 mg/kg/injection, schedule: Q01DX001 (ip), vehicle: saline.
Where [4] appears, read: dose: 200.0 mg/kg/injection, schedule: Q01DX001 (ip), vehicle: saline.
The mark [5] stands for this setting: dose: 400.0 mg/kg/injection, schedule: Q01DX001 (ip), vehicle: saline.
[6] abbreviates: dose: 75.0 mg/kg/injection, schedule: Q01DX001 (ip), vehicle: saline.
Where [7] appears, read: dose: 150.0 mg/kg/injection, schedule: Q01DX001 (ip), vehicle: saline.
[8] abbreviates: dose: 400.0 mg/kg/injection, schedule: Q04DX002 (ip), vehicle: Klucel (hydroxypropylcellulose) (HPC).
[9] abbreviates: dose: 100.0 mg/kg/injection, schedule: Q01DX009 (ip), vehicle: saline.
Where [10] appears, read: dose: 50.0 mg/kg/injection, schedule: Q01DX009 (ip), vehicle: Klucel (hydroxypropylcellulose) (HPC).
[11] abbreviates: dose: 100.0 mg/kg/injection, schedule: Q01DX009 (ip), vehicle: Klucel (hydroxypropylcellulose) (HPC).
Where [12] appears, read: dose: 200.0 mg/kg/injection, schedule: Q01DX009 (ip), vehicle: saline with Tween-80.
Where [13] appears, read: dose: 50.0 mg/kg/injection, schedule: Q01DX009 (ip), vehicle: saline with Tween-80.
Setting [14] is: dose: 100.0 mg/kg/injection, schedule: Q01DX009 (ip), vehicle: saline with Tween-80.
[15] abbreviates: dose: 400.0 mg/kg/injection, schedule: Q01DX009 (ip), vehicle: saline with Tween-80.
[16] abbreviates: dose: 100.0 mg/kg/injection, schedule: Q04DX003 (ip), vehicle: saline with Tween-80.
[17] abbreviates: dose: 200.0 mg/kg/injection, schedule: Q04DX003 (ip), vehicle: saline with Tween-80.
Setting [18] is: dose: 400.0 mg/kg/injection, schedule: Q04DX003 (ip), vehicle: saline with Tween-80.
[19] abbreviates: dose: 100.0 mg/kg/injection, schedule: Q04DX003 (ip), vehicle: Klucel (hydroxypropylcellulose) (HPC).
Setting [20] is: dose: 200.0 mg/kg/injection, schedule: Q01DX009 (ip), vehicle: Klucel (hydroxypropylcellulose) (HPC).
[21] abbreviates: dose: 200.0 mg/kg/injection, schedule: Q04DX003 (ip), vehicle: Klucel (hydroxypropylcellulose) (HPC).

`c1ccc(C2(N3CCC4(CC3)OCCO4)CCCCC2)cc1`: the T/C is, setting by setting: under setting [1], 102 % of control; under setting [2], 105 % of control.

As for `CCC(C(=O)O)N1C(=O)c2ccccc2C1=O` (configuration not stated), the T/C is 102 % of control under setting [3], 97 % of control under setting [4] and 103 % of control under setting [5].

As to `Cc1nnc2c3ccccc3cnn12`, the T/C runs as follows: (dose: 75.0 mg/kg/injection, schedule: Q01DX001 (ip), vehicle: carboxymethylcellulose (CMC)) 98 % of control; (dose: 150.0 mg/kg/injection, schedule: Q01DX001 (ip), vehicle: carboxymethylcellulose (CMC)) 97 % of control; (dose: 300.0 mg/kg/injection, schedule: Q01DX001 (ip), vehicle: carboxymethylcellulose (CMC)) 98 % of control.

Take `C(#CCN1CCCCC1)CN1CCCCC1`: the T/C was 105 % of control under setting [6]; 103 % of control under setting [7]; 101 % of control (dose: 300.0 mg/kg/injection, schedule: Q01DX001 (ip), vehicle: saline).

In the case of `Cc1cccc(Cl)c1N=Nc1sc(N)nc1C`, the T/C is 105 % of control under setting [6] and 105 % of control under setting [7].

On to `CCOC(=O)COc1c(C(C)(C)C)cc([N+](=O)[O-])c(C)c1[N+](=O)[O-]`, for which the T/C under setting [1] is 100 % of control, the T/C under setting [2] is 91 % of control and the T/C under setting [8] is 106 % of control.

For the compound `CCOC(=O)/C(Br)=C/SCCN`, the T/C reads like this: under setting [9], 97 % of control; (dose: 200.0 mg/kg/injection, schedule: Q01DX009 (ip), vehicle: saline) 92 % of control; (dose: 400.0 mg/kg/injection, schedule: Q01DX009 (ip), vehicle: saline) 91 % of control.

On to `O=C(O)c1ccc(CO)o1`, for which the T/C under setting [10] was 107 % of control and the T/C under setting [11] is 93 % of control.

Regarding `CN(C)/N=N\c1nc[nH]c1C(=O)N1CCCC1`, the T/C is, setting by setting: (dose: 100.0 mg/kg/injection, schedule: Q01DX001 (ip), vehicle: saline with Tween-80) 100 % of control; (dose: 200.0 mg/kg/injection, schedule: Q01DX001 (ip), vehicle: saline with Tween-80) 105 % of control; under setting [12], 150 % of control and 206 % of control; (dose: 400.0 mg/kg/injection, schedule: Q01DX001 (ip), vehicle: saline with Tween-80) 111 % of control.

On to `CC(NC(=O)c1ccccc1)C(=O)Nc1ccccc1` (configuration not stated), for which the T/C runs as follows: under setting [1], 101 % of control; under setting [2], 114 % of control; under setting [8], 108 % of control.

Turning to `[N-]=[N+]=Nc1ccc(S(N)(=O)=O)cc1`, the T/C runs as follows: under setting [3], 99 % of control; under setting [4], 94 % of control; under setting [5], 93 % of control.

As for `COC(CSc1ncc2cnccn12)OC`, the T/C runs as follows: (dose: 100.0 mg/kg/injection, schedule: Q01DX009 (ip), vehicle: water) 102 % of control; (dose: 100.0 mg/kg/injection, schedule: Q04DX003 (ip), vehicle: water) 103 % of control; (dose: 200.0 mg/kg/injection, schedule: Q01DX009 (ip), vehicle: water) 100 % of control; (dose: 200.0 mg/kg/injection, schedule: Q04DX003 (ip), vehicle: water) 106 % of control; (dose: 400.0 mg/kg/injection, schedule: Q01DX009 (ip), vehicle: water) 100 % of control; (dose: 400.0 mg/kg/injection, schedule: Q04DX003 (ip), vehicle: water) 108 % of control.

As to `N#C[S-].N#C[S-].[Au+3].[Au+3].[CH3-].[CH3-].[CH3-].[CH3-]`, the T/C is, setting by setting: under setting [13], 96 % of control; under setting [14], 109 % of control; under setting [12], 105 % of control.

As for `O=c1cc[n]2c(n1)[O][Hg]2`, the T/C is 98 % of control (dose: 5.0 mg/kg/injection, schedule: Q01DX001 (ip), vehicle: carboxymethylcellulose (CMC)) and 98 % of control (dose: 10.0 mg/kg/injection, schedule: Q01DX001 (ip), vehicle: carboxymethylcellulose (CMC)).

Take `CC/C(=N/Nc1ccc([N+](=O)[O-])cc1[N+](=O)[O-])c1ccccc1`: the T/C (dose: 100.0 mg/kg/injection, schedule: Q01DX001 (ip), vehicle: other) is 96 % of control; the T/C (dose: 200.0 mg/kg/injection, schedule: Q01DX001 (ip), vehicle: other) was 111 % of control; the T/C (dose: 400.0 mg/kg/injection, schedule: Q01DX001 (ip), vehicle: other) is 91 % of control.

As for `Cn1nnnc1N/N=C/c1ccccc1`, the T/C runs as follows: under setting [14], 98 % of control; under setting [12], 95 % of control; under setting [15], 95 % of control.

Turning to `O=C(O)Cc1ccc(Br)cc1`, the T/C is, setting by setting: under setting [16], 93 % of control; under setting [17], 96 % of control; under setting [18], 102 % of control.

As to `S=c1cc(-c2ccco2)ss1`, the T/C was 93 % of control under setting [14]; 90 % of control under setting [16]; 91 % of control under setting [12]; 95 % of control under setting [17]; 90 % of control under setting [15]; 96 % of control under setting [18].

In the case of `C1CSCSC1`, the T/C is, setting by setting: (dose: 12.5 mg/kg/injection, schedule: Q01DX009 (ip), vehicle: Klucel (hydroxypropylcellulose) (HPC)) 100 % of control; (dose: 12.5 mg/kg/injection, schedule: Q04DX003 (ip), vehicle: Klucel (hydroxypropylcellulose) (HPC)) 101 % of control; (dose: 25.0 mg/kg/injection, schedule: Q01DX009 (ip), vehicle: Klucel (hydroxypropylcellulose) (HPC)) 95 % of control; (dose: 25.0 mg/kg/injection, schedule: Q04DX003 (ip), vehicle: Klucel (hydroxypropylcellulose) (HPC)) 97 % of control; (dose: 50.0 mg/kg/injection, schedule: Q04DX003 (ip), vehicle: Klucel (hydroxypropylcellulose) (HPC)) 100 % of control.

In the case of `CCN(CC)c1ccc(C(=C(c2ccc(N(CC)CC)cc2)c2ccc(N(CC)CC)cc2)c2ccc(N(CC)CC)cc2)cc1`, the T/C runs as follows: under setting [10], 88 % of control; under setting [11], 101 % of control; under setting [19], 90 % of control; under setting [20], 91 % of control; under setting [21], 101 % of control.

As to `CC(=O)c1ccc2c(c1)-c1ccccc1C(=O)C2=O`, the T/C runs as follows: under setting [16], 89 % of control; under setting [17], 94 % of control; under setting [18], 91 % of control.

Turning to `BrC(Br)c1cnc2ccccc2n1`, the T/C is 107 % of control under setting [10], 92 % of control under setting [11] and 101 % of control under setting [20].

With `C/C=C/C(=O)OCC` (tested in a mixture with another compound), the T/C by setting is: under setting [13], 97 % of control; under setting [14], 93 % of control; under setting [12], 93 % of control.

`O=C(O)C1=CCC=CC1C(=O)O` (configuration not stated): the T/C is 93 % of control (dose: 25.0 mg/kg/injection, schedule: Q01DX009 (ip), vehicle: saline); 95 % of control (dose: 50.0 mg/kg/injection, schedule: Q01DX009 (ip), vehicle: saline); 98 % of control under setting [9]; 95 % of control (dose: 100.0 mg/kg/injection, schedule: Q04DX003 (ip), vehicle: saline); 93 % of control (dose: 200.0 mg/kg/injection, schedule: Q04DX003 (ip), vehicle: saline).

`Cc1c(C)c2cc3ccc(Cl)cc3nc2c2ccccc12`: the T/C is 103 % of control under setting [19]; 105 % of control under setting [21]; 110 % of control (dose: 400.0 mg/kg/injection, schedule: Q04DX003 (ip), vehicle: Klucel (hydroxypropylcellulose) (HPC)).

In the case of `Cc1cccc(Cl)c1NC(=O)c1cccc([N+](=O)[O-])c1`, the T/C is, setting by setting: under setting [11], 96 % of control; under setting [20], 90 % of control; (dose: 400.0 mg/kg/injection, schedule: Q01DX009 (ip), vehicle: Klucel (hydroxypropylcellulose) (HPC)) 93 % of control.
